# ChEMBL document CHEMBL1143776, “Thioimidoyl furanosides as first inhibitors of the alpha-L-arabinofuranosidase AbfD3” (Bioorg Med Chem Lett, 2007)
# Assay: Inhibition of AbfD3
row,SMILES,IC50
1,OC[C@@H]1O[C@@H](Sc2ccccn2)[C@H](O)[C@H]1O,< 100 µM
2,OC[C@@H]1O[C@@H](Sc2ncccn2)[C@H](O)[C@H]1O,< 100 µM
3,OC[C@@H]1O[C@@H](Sc2nc3ccccc3s2)[C@H](O)[C@H]1O,< 100 µM
4,OC[C@@H]1O[C@@H](Sc2nc3ccccc3[nH]2)[C@H](O)[C@H]1O,< 100 µM
5,OC[C@@H]1O[C@@H](Sc2nccs2)[C@H](O)[C@H]1O,< 100 µM
